Reference: US6914045B2, “Glycopeptide antibiotics” (Wyeth Holdings Corporation, priority 2001, dated 2005)
In brackets after ≈: the same amount, converted by molar mass.

Key:
Assay in all cases: in vitro antibacterial evaluation, MIC by broth dilution
Assay type in all cases: cell-based
[1] = system: Enterococcus sp.; settings: broth dilution, 18 hours at 35° C.
Summary of the method: (§1)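 Step 1: dilute antibiotic across 64-0.06 μg/mL in Muller-Hinton II […]. Step 2: inoculate at 5×10^5 CFU/mL.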

[2] = system: Escherichia coli
Summary of the method: as §1

[3] = system: Staphylococcus sp.; settings: broth dilution, 18 hours at 35° C.; for MIC Staphylococcus aureus (GC 1131): strain GC 1131
Summary of the method: as §1

[4] = system: Streptococcus sp.; settings: broth dilution, 18 hours at 35° C.
Summary of the method: as §1

CCCc1ccc(C2OCC3OC(OC4C(CO)OC(Oc5ccc(CC6NC(=O)C(C(C)c7ccccc7)NC(=O)CNC(=O)C(CO)NC(=O)C(C(O)C7CNC(=N)N7C7OC(CO)C(O)C(O)C7O)NC(=O)C(C(O)C7CNC(=N)N7)NC6=O)cc5)C(O)C4O)C(O)C(O)C3O2)cc1 (stereo not drawn) [Example 140, Cyclo[glycyl-β-methylphenylalanyl-O-[4-O-[4,6-O-(4-propylbenzylidene)hexopyranosyl]-hexopyranosyl]tyrosyl-3-(2-iminoimidazolidin-4-yl)seryl-3-(3-hexopyranosyl-2-iminoimidazolidin-4-yl)serylseryl]]
MIC Enterococcus avium (GC 4558) ([1]; Enterococcus avium (GC 4558)): 1 µg/mL (≈ 0.702 µM)
MIC Enterococcus faecalis (ATCC 29212) ([1]; Enterococcus faecalis (ATCC 29212)): <0.5 µg/mL
MIC Enterococcus faecalis (GC 2242) ([1]; Enterococcus faecalis (GC 2242)): <1 µg/mL
MIC Enterococcus faecalis (GC 2691) ([1]; Enterococcus faecalis (GC 2691)): 1 µg/mL (≈ 0.702 µM)
MIC Enterococcus faecalis (GC 3059) ([1]; Enterococcus faecalis (GC 3059)): 1 µg/mL (≈ 0.702 µM)
MIC Enterococcus faecalis (GC 4552) ([1]; Enterococcus faecalis (GC 4552)): 1 µg/mL (≈ 0.702 µM)
MIC Enterococcus faecalis (GC 4553) ([1]; Enterococcus faecalis (GC 4553)): 1 µg/mL (≈ 0.702 µM)
MIC Enterococcus faecalis (GC 4554) ([1]; Enterococcus faecalis (GC 4554)): 1 µg/mL (≈ 0.702 µM)
MIC Enterococcus faecalis (GC 6189) ([1]; Enterococcus faecalis (GC 6189)): 1 µg/mL (≈ 0.702 µM)
MIC Enterococcus faecium (GC 2243) ([1]; Enterococcus faecium (GC 2243)): 1 µg/mL (≈ 0.702 µM)
MIC Enterococcus faecium (GC 4556) ([1]; Enterococcus faecium (GC 4556)): 1 µg/mL (≈ 0.702 µM)
MIC Enterococcus faecium (GC 4557) ([1]; Enterococcus faecium (GC 4557)): 1 µg/mL (≈ 0.702 µM)
MIC Enterococcus faecalis (ATCC 29212) ([1]; strain ATCC 29212): <0.5 µg/mL
MIC Enterococcus faecalis (GC 2242) ([1]; strain GC 2242): <1 µg/mL
MIC Enterococcus faecium (GC 2243) ([1]; strain GC 2243): 1 µg/mL (≈ 0.702 µM)
MIC Enterococcus faecalis (GC 2691) ([1]; strain GC 2691): 1 µg/mL (≈ 0.702 µM)
MIC Enterococcus faecalis (GC 3059) ([1]; strain GC 3059): 1 µg/mL (≈ 0.702 µM)
MIC Enterococcus faecalis (GC 4552) ([1]; strain GC 4552): 1 µg/mL (≈ 0.702 µM)
MIC Enterococcus faecalis (GC 4553) ([1]; strain GC 4553): 1 µg/mL (≈ 0.702 µM)
MIC Enterococcus faecalis (GC 4554) ([1]; strain GC 4554): 1 µg/mL (≈ 0.702 µM)
MIC Enterococcus faecium (GC 4556) ([1]; strain GC 4556): 1 µg/mL (≈ 0.702 µM)
MIC Enterococcus faecium (GC 4557) ([1]; strain GC 4557): 1 µg/mL (≈ 0.702 µM)
MIC Enterococcus avium (GC 4558) ([1]; strain GC 4558): 1 µg/mL (≈ 0.702 µM)
MIC Enterococcus faecalis (GC 6189) ([1]; strain GC 6189): 1 µg/mL (≈ 0.702 µM)
MIC Escherichia coli (ATCC 25922) ([2]; strain ATCC 25922, 18 hours at 35° C.): 64 µg/mL (≈ 44.9 µM)
MIC Escherichia coli (GC 4559) ([2]; strain GC 4559, 18 hours at 35° C.): 64 µg/mL (≈ 44.9 µM)
MIC Escherichia coli (GC 4560) ([2]; strain GC 4560, 18 hours at 35° C.): 1 µg/mL (≈ 0.702 µM)
MIC Staphylococcus aureus (GC 1131) ([3]; inoculum 5×10^5 CFU/mL): 1 µg/mL (≈ 0.702 µM)
MIC Staphylococcus aureus (ATCC 29213) ([3]; strain ATCC 29213): 1 µg/mL (≈ 0.702 µM)
MIC Staphylococcus aureus (GC 1131) [3]: 1 µg/mL (≈ 0.702 µM)
MIC Staphylococcus aureus (GC 3051) ([3]; strain GC 3051): 1 µg/mL (≈ 0.702 µM)
MIC Staphylococcus aureus (GC 3053) ([3]; strain GC 3053): <0.5 µg/mL
MIC Staphylococcus aureus (GC 4541) ([3]; strain GC 4541): 1 µg/mL (≈ 0.702 µM)
MIC Staphylococcus aureus (GC 4542) ([3]; strain GC 4542): 1 µg/mL (≈ 0.702 µM)
MIC Staphylococcus aureus-SMITH (GC 4543) ([3]; strain GC 4543): 1 µg/mL (≈ 0.702 µM)
MIC Staphylococcus aureus (GC 4544) ([3]; strain GC 4544): 1 µg/mL (≈ 0.702 µM)
MIC Staphylococcus aureus (GC 4545) ([3]; strain GC 4545): <0.5 µg/mL
MIC Staphylococcus haemolyticus (GC 4546) ([3]; strain GC 4546): 1 µg/mL (≈ 0.702 µM)
MIC Coagulase Negative Staphylococcus (GC 4547) ([3]; strain GC 4547): <0.5 µg/mL
MIC Coagulase Negative Staphylococcus (GC 4548) ([3]; strain GC 4548): <0.5 µg/mL
MIC Coagulase Negative Staphylococcus (GC 4549) ([3]; strain GC 4549): <0.5 µg/mL
MIC Coagulase Negative Staphylococcus (GC 4551) ([3]; strain GC 4551): <0.5 µg/mL
MIC Coagulase Negative Staphylococcus (GC 6257) ([3]; strain GC 6257): <0.5 µg/mL
MIC Staphylococcus aureus-SMITH (GC 4543) ([3]; strain SMITH GC 4543): 1 µg/mL (≈ 0.702 µM)
MIC Streptococcus agalactiae (GC 4564) ([4]; Streptococcus agalactiae (GC 4564)): <0.5 µg/mL
MIC Streptococcus pneumoniae (ATCC 6301) ([4]; Streptococcus pneumoniae (ATCC 6301)): <0.5 µg/mL
MIC Streptococcus pneumoniae (GC 1894) ([4]; Streptococcus pneumoniae (GC 1894)): <0.5 µg/mL
MIC Streptococcus pneumoniae (GC 4565) ([4]; Streptococcus pneumoniae (GC 4565)): <0.5 µg/mL
MIC Streptococcus pyogenes (GC 4563) ([4]; Streptococcus pyogenes (GC 4563)): <0.5 µg/mL
MIC Streptococcus pneumoniae (ATCC 6301) ([4]; strain ATCC 6301): <0.5 µg/mL
MIC Streptococcus pneumoniae (GC 1894) ([4]; strain GC 1894): <0.5 µg/mL
MIC Streptococcus pyogenes (GC 4563) ([4]; strain GC 4563): <0.5 µg/mL
MIC Streptococcus agalactiae (GC 4564) ([4]; strain GC 4564): <0.5 µg/mL
MIC Streptococcus pneumoniae (GC 4565) ([4]; strain GC 4565): <0.5 µg/mL
